Measurements from patent publication US8101410B2 (Entelechon GmbH, priority 2005, dated 2012).
Where two headings read alike, the source gives them in different places.

What was measured:
[1] = tested on: shoots of codAps transgenic lines A, B, D and E of Brassica juncea cv. Varuna
Description: The codA gene was isolated in the inventors' laboratory from local strain of Arthrobacter globiformis (GenBank accession number AY589052, hereafter referred as codAps gene) and cloned into pPZP200lox(npt 11) vector (obtained from Dr. Deepak Pental, Department of Genetics, South Campus, University of Delhi, New Delhi, India). The resultant vector named as pSG was electroporated into Agrobacterium tumefaciens strain GV3101. Hypocotyl and cotyledonary petiolar explants were excised from 6 d old sterile seedlings were transformed using Agrobacterium tumefaciens strain GV3101/pSG/codAps.

Brassica juncea L. = conditions: Present Investigations
plant cells [2] = conditions: Table 2, choline, present investigations
[3] = tested on: Brassica juncea cv. Varuna wild type seeds/seedlings
Description: (§1) T2 seeds of various independent homozygous transgenic lines of Brassica juncea cv. […] Homozygous transgenic genotypes were identified based on 100 percent germination of T2 seed of various independent transformed lines in the presence of 50 mg/l kanamycin.

[4] = tested on: homozygous codAps transgenic lines A, B, D and E of Brassica juncea cv. Varuna seeds/seedlings; conditions: for seedling growth: transgenic lines
Description: as §1
For these studies seeds from four homozygous transgenic lines (lines A, B, D and E) of T2 generation were used. The homozygous genotypes were identified based on 100 percent germination of seed in the presence of 50 mg/l kanamycin (i.e. otherwise lethal to wild type/non-transgenic lines).

[5] = tested on: Brassica juncea cv. Varuna explants (wild type)
Nicotiana tabacum L. [6] = conditions: Present Investigations
[7] = tested on: Brassica juncea wild type shoots
[8] = tested on: Nicotiana tabacum cv. Petit Havana SR1 shoots
Description: In one set of experiments uniformly looking ˜1 cm long shoots were taken while in a second set of experiments a bunch of 6-8 shoots were used.
For this purpose, shoots of Nicotiana tabacum cv. Petit Havana SR1 were obtained by multiplying the shoots regenerated from the leaf segments on MS medium supplemented with 2 mg/l BAP.

[9] = tested on: wild type/non-transgenic lines of Brassica juncea cv. Varuna; experiment: Seed germination in the presence of kanamycin; format: in vivo
[10] = tested on: Lycopersicon esculentum L.; conditions: Haldrup et al. (1998); cited from earlier work
Solanum tuberosum L. = conditions: Haldrup et al. (1998); cited from earlier work
Nicotiana tabacum L. [11] = conditions: Haldrup et al. (1998); cited from earlier work
plant cells [12] = conditions: Table 2, range over plant species, literature; cited from earlier work
[13] = 60 mM choline, transgenic lines
[14] = lower concentrations of choline, shoot induction medium

With `C[N+](C)(C)CCO.[Cl-]` [Choline, choline chloride] the “growth of the shoots” value ([1]; 40 mM choline, transgenic lines) was “no significant alteration in the growth”, the green pigmentation [1, 13] was “no loss in green pigmentation” and the growth of shoots [1, 13] was “suppression in the growth”. For the same compound, the “choline concentration that shoots were able to withstand” value ([1]; transgenic lines A, B, D, E, MS medium) was no more than 60 mM, the Selection concentration (Brassica juncea L.) was 5584 mg/L and the Selection concentration (plant cells [2]) was 5584 mg/L. The “fresh weight of seedlings, lower than those raised in absence of choline” value ([3]; 40 mM choline, MGM, 30 d) was 90%, the “seed germination and early seedling growth” value ([3]; MGM (half strength MS without sucrose/organics) with choline) was “significantly curtailed” and the “percent seed germination as well as seedling growth” value ([3]; MS medium supplemented with choline (20, 40 mM)) was “suppressed significantly”. For the same compound, the seed germination ([3]; MS medium, 40 mM choline) was “almost no/little seed germination”, the “fresh weight of seedlings, lower than respective controls” value ([4]; four independent transgenic lines, 40 mM choline, MGM, 30 d) was 25-30% and the “seed germination and seedling growth” value ([4]; transgenic lines A, B, D, E, MGM, 40 mM choline vs 20 mM) was “delay in seed germination as well as reduction in seedling growth”. For the same compound, the seed germination ([4]; transgenic lines A, B, D, E, MS medium, all concentrations of choline tested (20, 40 mM)) was 100%, the seedling growth ([4]; MS medium, 20 mM choline and below) was “comparable to those grown in the absence of choline” and the seedling growth ([4]; MS medium, 40 mM choline) was “significant reduction in seedling growth”. The “cotyledonary explants that lost green pigmentation completely” value ([5]; 40 mM choline) was roughly 100%, the cultures exhibiting callogenesis ([5]; 40 mM choline) was 100% and the “shoot induction (caulogenesis) from hypocotyl and cotyledonary petiolar explants” value ([5]; choline chloride 10, 20, 30, 40 mM in shoot induction medium (MS + BAP, NAA, AgNO3), 20 d) was “suppressed shoot induction”. The “expansion of the cotyledonary leaves of cotyledonary petiolar explants” value ([5]; choline in shoot induction medium, effect increases with concentration) was “significantly curtailed the expansion of the cotyledonary leaves”, the “callogenesis i.e. callus induction” value [5, 14] was “did not cause any significant alteration in callogenesis” and the rhizogenesis [5, 14] was “promoted rhizogenesis”. For the same compound, the Selection concentration (Nicotiana tabacum L. [6]) was 5584 mg/L, the growth of shoots ([7]; MS medium with choline chloride 5-60 mM, wild type) was “significantly curtailed the growth of shoots” and the “time to death of shoots after inoculation” value ([7]; choline 20 mM and above, wild type shoots) was no more than 15 days. For the same compound, the “choline concentration giving loss in green pigmentation followed by browning/senescence leading to death” value ([7]; wild type shoots, MS medium) was no less than 20 mM, the “time to loss of green pigmentation followed by senescence/death after inoculation” value ([8]; 40 mM choline) was no more than 7 days and the shoot growth ([8]; MS medium with choline chloride 20 and 40 mM) was “significantly curtailed shoot growth”.
In the case of `[Cl-].[K+]` [potassium chloride, reference compound], the shoot induction ([5]; potassium chloride 10, 20, 30, 40 mM in place of choline chloride) is reported as “no significant alteration” and the “expansion of cotyledons and/or green pigmentation” value ([5]; potassium chloride at highest concentration (40 mM)) is reported as “did not cause any suppression in the expansion of cotyledons and/or alteration in green pigmentation”.
For `NC[C@H]1O[C@H](O[C@H]2[C@H](O)[C@@H](O[C@H]3O[C@H](CO)[C@@H](O)[C@H](N)[C@H]3O)[C@H](N)C[C@@H]2N)[C@H](O)[C@@H](O)[C@@H]1O` [Kanamycin], the “kanamycin concentration lethal to wild type/non-transgenic lines” value [9] was 50 mg/L.
For `O=C[C@H](O)[C@@H](O)[C@H](O)CO` [Xylose], the Selection concentration [10] is given as 15000 mg/L, the Selection concentration (Solanum tuberosum L.) is given as 3750 mg/L and the Selection concentration (Nicotiana tabacum L. [11]) is given as 20000 mg/L. For the same compound, the Selection concentration (plant cells [12]) was 3750 to 20000 mg/L.
For `CP(=O)(O)CC[C@H](N)C(=O)O` [Phosphinothricin], the Selection concentration (plant cells [12]) is given as 5 to 10 mg/L.
